This is an account of results in patent US3985887A, “3-Substituted-4-hydroxyphenyl-2-piperidylcarbinols as β-adrenergic stimulants” (SmithKline Corporation, priority 1975, dated 1976).

The test system of assay [1] is guinea pig tracheal chain preparation. The assay is described as follows: effect on spontaneous tone of guinea pig tracheal chain preparation (β-stimulant direct relaxant effect on airway smooth muscle). Type of assay: cell-based. To be noted: Cavia porcellus, in vitro, read-out: ED50, dose which produces 50% of the maximum possible relaxation. As for the experimental part:
(§1) The compounds of this invention are β-adrenergic stimulants which have direct bronchodilator activity with minimal cardiac stimulation. This selective β-stimulant activity is determined by two standard in vitro pharmacological test systems: (1) effect on spontaneous tone of guinea pig tracheal chain preparation as a measure of β-stimulant (direct relaxant) effect on airway smooth muscle, and (2) effect on spontaneously beating right atria of the guinea pig as a measure of β-stimulant effect on cardiac muscle. Compounds that show selective bronchodilating properties, as the compounds of this invention do, are active in test (1) at a dose lower than is required in test (2) thereby resulting in a positive separation ratio. Results of test (1) are reported as the dose which produces 50% of the maximum possible relaxation (ED50). Test (2) results are reported as the dose which produces 25% of the maximum possible increase in atrial contraction rate (ED25).

The test system of assay [2] is spontaneously beating right atria of the guinea pig. The assay is described as follows: effect on spontaneously beating right atria of the guinea pig (β-stimulant effect on cardiac muscle). Type of assay: cell-based. To be noted: Cavia porcellus, in vitro, read-out: ED25, dose which produces 25% of the maximum possible increase in atrial contraction rate. As for the experimental part:
as §1

Where a name gives a salt, the structure may show the parent alone.

On to `NC(=O)Nc1cc(C(O)C2CCCCN2)ccc1O` (stereo not drawn) [α-(4-hydroxy-3-ureidophenyl)-2-piperidylcarbinol hydrochloride], for which the EC50 in assay [1] stood at 0.83 µg/mL. Besides, the EC25 in assay [2] turned out to be 9.4 µg/mL.
Taken in the same sequence, the figures for `CS(=O)(=O)Cc1cc(C(O)C2CCCCN2)ccc1O` (stereo not drawn) [α-(4-hydroxy-3-methanesulfonylmethylphenyl)-2-piperidylcarbinol hydrobromide] were 0.14 µg/mL and 1.1 µg/mL.
For `Nc1cc(C(O)C2CCCCN2)ccc1O` (stereo not drawn) [α-(3-amino-4-hydroxyphenyl)-2-piperidylcarbinol hydrobromide] the same measures were 0.12 µg/mL and 4.4 µg/mL.
